Source: patent US7297332B2, “Protease, a gene therefor and the use thereof” (Korean Research Institute of Bioscience and Biotechnology, priority 2000, dated 2007)
“Also recorded” adds a separate entry of the source.

Tested on: protease derived from Aranicola proteolyticus
Assay: Effect of protease inhibitors on the protease (azocasein assay)
Type: biochemical, Aranicola proteolyticus HY-3
Settings: for inhibition of the enzyme activity: 1 mM inhibitor, incubated at 37° C. for 5 minutes, azocasein substrate; for effect of metalloprotease inhibitor on protease activity: equal concentrations of inhibitors, FIG. 1
Protocol: Enzyme activity of the protease was measured according to the method described by Braun & Shmitz (Braun, V. & Schmitz, G., Arch. Microbiol. 124, 55-61, 1980). A substrate solution was prepared by dissolving 0.24 g of azocasein in 10 ml of 50 mM phosphate buffer (pH 7.5). The 300 □ of the substrate solution was mixed with 100 □ of bacterial culture solution and reacted at 37° C. for 30 minutes. Then, 300 □ of 10% trichloride acetate was added to the reaction solution and incubated at ambient temperature for 1 hour. The reaction solution was centrifuged at 7,000 rpm until pellet and supernatant was separated substantially. After adding 30 0 of 10% sodium hydroxide (NaOH) to the supernatant, the absorbance was measured at 420 nm. The enzymatic titer was defined as 1 unit by the 1.0 fold increment of absorbance value.
In order to examine the effects of protease inhibitors on the activity of the protease, the enzyme solution was added by 1 mM each of inhibitors enumerated below and incubated at 37° C. for 5 minutes before measuring relative enzyme activity. The inhibitors tested include antopain which is an aminopeptidase inhibitor, phosphoramidon which is a metalloendopeptidase inhibitor, pepstatin which is an aspartate protease inhibitor, E-64(L-trans-exoxysuccinyl leucylamido(4-fuanidino)butane) which is a cystein inhibitor, chymostatin which is a chymotrypsin inhibitor, leupeptin, petabloc SC, aprotinin, and PMSF which are serine protease inhibitors, phenanthroline and EDTA which are metalloprotease inhibitors.

| Structure (SMILES) | inhibition of the enzyme activity | effect of metalloprotease inhibitor on protease activity |
| --- | --- | --- |
| O=C(O)CN(CCN(CC(=O)O)CC(=O)O)CC(=O)O [EDTA] | about 30% | lowered; also recorded: inhibited |
| c1cnc2c(c1)ccc1cccnc12 [phenanthroline] | about 70% | lowered; also recorded: inhibited |
